One block for each molecule: values may come before it. Square brackets hold non-standard residues; d marks the D form. Ends that are not written are not given here. Peptide text beside a SMILES is read from it. * marks the point of attachment. Biotin = O=C1N[C@H]2[C@H](CS[C@H]2CCCCC(=O)*)N1; Phe(4-CH2NH2) = NCc1ccc(C[C@H](N)C(=O)O)cc1; Arg(Me2s) = CN=C(NC)NCCC[C@H](N)C(=O)O; hArg = N=C(N)NCCCC[C@H](N)C(=O)O; Cha = N[C@@H](CC1CCCCC1)C(=O)O; Lys(Me) = CNCCCC[C@H](N)C(=O)O; Cba = N[C@@H](CC1CCC1)C(=O)O; PEG4 = NCCOCCOCCOCCOCCC(=O)O; Pip = O=C(O)[C@@H]1CCCCN1; Dab = NCC[C@H](N)C(=O)O
Experiments:
[1] = molecular target: T1, recombinant menin protein (Homo sapiens, UniProt O00255); test: Bio-layer interferometry peptide-binding validation (Octet RED96)
T1 sequence (O00255 1-610): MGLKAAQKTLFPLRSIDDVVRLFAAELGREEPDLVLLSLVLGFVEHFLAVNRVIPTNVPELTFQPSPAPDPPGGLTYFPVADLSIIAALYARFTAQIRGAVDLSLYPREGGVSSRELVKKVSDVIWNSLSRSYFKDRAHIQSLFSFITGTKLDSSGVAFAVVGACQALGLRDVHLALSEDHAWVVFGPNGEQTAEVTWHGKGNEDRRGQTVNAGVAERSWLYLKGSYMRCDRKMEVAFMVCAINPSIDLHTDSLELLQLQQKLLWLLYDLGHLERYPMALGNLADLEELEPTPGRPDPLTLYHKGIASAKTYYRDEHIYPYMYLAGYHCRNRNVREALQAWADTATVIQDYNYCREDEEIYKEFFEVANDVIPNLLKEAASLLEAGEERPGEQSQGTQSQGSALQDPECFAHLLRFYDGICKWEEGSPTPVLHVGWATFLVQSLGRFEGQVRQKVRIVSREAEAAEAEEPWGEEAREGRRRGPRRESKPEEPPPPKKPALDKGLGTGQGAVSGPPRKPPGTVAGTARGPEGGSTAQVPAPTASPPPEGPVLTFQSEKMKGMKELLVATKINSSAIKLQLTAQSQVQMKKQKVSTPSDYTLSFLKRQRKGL

human ACE2 = human ACE2 (Homo sapiens, UniProt Q9BYF1); type: binding; details: highest tested peptide concentration 1000 nM; also biosensor alone
[2] = molecular target: T2, tMBM3 (truncated MLL menin binding motif) (Homo sapiens, also: additional C-terminal Arg); test: BLI
T2 chain: RFPARPR

Sequence of human ACE2 (Q9BYF1 18-805): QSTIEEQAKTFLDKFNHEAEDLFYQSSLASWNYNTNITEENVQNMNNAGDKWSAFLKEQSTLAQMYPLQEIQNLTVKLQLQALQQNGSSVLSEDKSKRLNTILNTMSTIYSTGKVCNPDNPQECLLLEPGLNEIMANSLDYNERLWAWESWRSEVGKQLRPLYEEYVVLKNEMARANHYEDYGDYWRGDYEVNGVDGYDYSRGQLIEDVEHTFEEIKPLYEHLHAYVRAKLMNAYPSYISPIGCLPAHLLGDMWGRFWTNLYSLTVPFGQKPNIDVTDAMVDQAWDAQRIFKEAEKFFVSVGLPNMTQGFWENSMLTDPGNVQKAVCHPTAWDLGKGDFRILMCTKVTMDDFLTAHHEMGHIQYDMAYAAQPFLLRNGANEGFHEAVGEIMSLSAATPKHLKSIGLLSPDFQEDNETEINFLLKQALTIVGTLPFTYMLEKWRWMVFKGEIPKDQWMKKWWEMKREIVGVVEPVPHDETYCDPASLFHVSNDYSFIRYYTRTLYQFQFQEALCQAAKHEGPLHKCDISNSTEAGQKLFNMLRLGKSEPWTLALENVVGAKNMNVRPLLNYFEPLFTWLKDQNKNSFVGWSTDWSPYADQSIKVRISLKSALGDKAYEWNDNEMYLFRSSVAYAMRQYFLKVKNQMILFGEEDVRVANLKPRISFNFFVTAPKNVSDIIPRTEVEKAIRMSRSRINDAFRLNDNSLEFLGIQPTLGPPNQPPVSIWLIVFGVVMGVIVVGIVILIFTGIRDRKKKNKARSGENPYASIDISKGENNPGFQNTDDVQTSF

Molecule: CC(C)[C@H](NC(=O)[C@@H]1CCCCN1C(=O)[C@H](CC1CCC1)NC(=O)[C@H](CCCNC(=N)N)NC(=O)CCOCCOCCOCCOCCNC(=O)CCCC[C@@H]1SC[C@@H]2NC(=O)N[C@@H]21)C(=O)N[C@@H](CCCNC(=N)N)C(=O)N1CCCC[C@H]1C(=O)N[C@@H](CCCNC(=N)N)C(N)=O [hit 1] ({Biotin-PEG4}-R[Cba][Pip]VR[Pip]R-NH2)
Kd [1]: 34 nM

Molecule: CC(C)[C@H](NC(=O)[C@@H]1CCCCN1C(=O)[C@H](CC1CCCCC1)NC(=O)[C@H](CCCNC(=N)N)NC(=O)CCOCCOCCOCCOCCNC(=O)CCCC[C@@H]1SC[C@@H]2NC(=O)N[C@@H]21)C(=O)N[C@@H](CCCNC(=N)N)C(=O)N1CCCC[C@H]1C(=O)N[C@@H](CCCNC(=N)N)C(N)=O [hit 6] ({Biotin-PEG4}-R[Cha][Pip]VR[Pip]R-NH2)
Kd [1]: 40 nM

Molecule: C[C@H](NC(=O)[C@@H]1CCCN1C(=O)[C@H](Cc1ccccc1)NC(=O)[C@H](CCCNC(=N)N)NC(=O)[C@H](Cc1c[nH]c2ccccc12)NC(=O)[C@@H](N)CCCNC(=N)N)C(=O)N[C@@H](CCCNC(=N)N)C(=O)N1CCC[C@H]1C(=O)N[C@@H](CCCNC(=N)N)C(N)=O [tMBM1] (H-RWRFPARPR-NH2)
Kd [1]: 14 nM

Molecule: C[C@H](NC(=O)[C@@H]1CCCN1C(=O)[C@H](Cc1ccccc1)NC(=O)[C@H](CCCNC(=N)N)NC(=O)[C@H](Cc1c[nH]c2ccccc12)NC(=O)CCOCCOCCOCCOCCNC(=O)CCCC[C@@H]1SC[C@@H]2NC(=O)N[C@@H]21)C(=O)N[C@@H](CCCNC(=N)N)C(=O)N1CCC[C@H]1C(=O)N[C@@H](CCCNC(=N)N)C(N)=O [tMBM2] ({Biotin-PEG4}-WRFPARPR-NH2)
Kd [1]: 67 nM

Molecule: C[C@H](NC(=O)[C@@H]1CCCN1C(=O)[C@H](Cc1ccccc1)NC(=O)[C@H](CCCNC(=N)N)NC(=O)CCOCCOCCOCCOCCNC(=O)CCCC[C@@H]1SC[C@@H]2NC(=O)N[C@@H]21)C(=O)N[C@@H](CCCNC(=N)N)C(=O)N1CCC[C@H]1C(=O)N[C@@H](CCCNC(=N)N)C(N)=O [tMBM3] ({Biotin-PEG4}-RFPARPR-NH2)
KD (nM), apparent dissociation constant [1]: 3800 nM | Kd [1]: > 3800 nM

Molecule: YPYDVPDYAK [HA tag]
capture by control protein (human ACE2): not captured

B1: menin (protein)
chain: T1 sequence (O00255 1-610)
Kd [2]: > 3800 nM

Second part, the molecule after the results:

Kd [1]: 30 nM
Molecule: C[C@H](NC(=O)[C@@H]1CCCN1C(=O)[C@H](Cc1ccccc1)NC(=O)[C@H](CCCNC(=N)N)NC(=O)[C@H](Cc1c[nH]c2ccccc12)NC(=O)[C@@H](N)CCCNC(=N)N)C(=O)N[C@@H](CCCNC(=N)N)C(=O)N1CCC[C@H]1C(N)=O [MBM1, reference compound] (H-RWRFPARP-NH2)

Kd [1]: 20 nM
Molecule: CN=C(NC)NCCC[C@H](NC(=O)[C@@H](NC(=O)[C@@H]1CCCCN1C(=O)[C@H](CC1CCCCC1)NC(=O)[C@H](CCCCN)NC(=O)CCOCCOCCOCCOCCNC(=O)CCCC[C@@H]1SC[C@@H]2NC(=O)N[C@@H]21)C(C)C)C(=O)N1CCCC[C@H]1C(=O)N[C@@H](CCCNC(=N)N)C(N)=O [hit 6-1] ({Biotin-PEG4}-K[Cha][Pip]V[Arg(Me2s)][Pip]R-NH2)

Kd [1]: 45 nM
Molecule: CC(C)[C@H](NC(=O)[C@@H]1CCCCN1C(=O)[C@H](CC1CCCCC1)NC(=O)[C@H](CCN)NC(=O)CCOCCOCCOCCOCCNC(=O)CCCC[C@@H]1SC[C@@H]2NC(=O)N[C@@H]21)C(=O)N[C@@H](CCCNC(=N)N)C(=O)N1CCCC[C@H]1C(=O)N[C@@H](Cc1ccc(CN)cc1)C(N)=O [hit 6-2] ({Biotin-PEG4}-[Dab][Cha][Pip]VR[Pip][Phe(4-CH2NH2)]-NH2)

Kd [1]: 34 nM
Molecule: CC(C)[C@H](NC(=O)[C@@H]1CCCCN1C(=O)[C@H](CC1CCCCC1)NC(=O)[C@H](CCN)NC(=O)CCOCCOCCOCCOCCNC(=O)CCCC[C@@H]1SC[C@@H]2NC(=O)N[C@@H]21)C(=O)N[C@@H](CCCCNC(=N)N)C(=O)N1CCCC[C@H]1C(=O)N[C@@H](CCCNC(=N)N)C(N)=O [hit 6-3] ({Biotin-PEG4}-[Dab][Cha][Pip]V[hArg][Pip]R-NH2)

Kd [1]: 87 nM
Molecule: CNCCCC[C@H](NC(=O)[C@@H](NC(=O)[C@@H]1CCCCN1C(=O)[C@H](CC1CCCCC1)NC(=O)[C@H](CCCCN)NC(=O)CCOCCOCCOCCOCCNC(=O)CCCC[C@@H]1SC[C@@H]2NC(=O)N[C@@H]21)C(C)C)C(=O)N1CCCC[C@H]1C(=O)N[C@@H](CCCNC(=N)N)C(N)=O [hit 6-4] ({Biotin-PEG4}-K[Cha][Pip]V[Lys(Me)][Pip]R-NH2)

Kd [1]: 110 nM
Molecule: CNCCCC[C@H](NC(=O)[C@@H](NC(=O)[C@@H]1CCCCN1C(=O)[C@H](CC1CCCCC1)NC(=O)[C@H](Cc1c[nH]cn1)NC(=O)CCOCCOCCOCCOCCNC(=O)CCCC[C@@H]1SC[C@@H]2NC(=O)N[C@@H]21)C(C)C)C(=O)N1CCCC[C@H]1C(=O)N[C@@H](CCCNC(=N)N)C(N)=O [hit 6-5] ({Biotin-PEG4}-H[Cha][Pip]V[Lys(Me)][Pip]R-NH2)

— PMC8372318, “Automated affinity selection for rapid discovery of peptide binders” (Chemical Science, 2021)
